The values that follow come from US12390446B2 (RESEARCH TRIANGLE INSTITUTE, priority 2017, dated 2025).

The target in experiment [1] is T1, NPFF1 receptor (human NPFFR1 in CHO-RD-HGA16 cells) (Homo sapiens, UniProt Q9GZQ6).
T1 construct: expressed in transfected cells
The experiment in a line: Calcium mobilization functional Ke assay, NPFF1. As to conditions: for Kb: read-out: NPFF1 Ke; for type of antagonism in curve-shift assays: standard incubation, competitive profile with longer incubations. The experiment is classed as cell-based. Background: Calcium assays in cells follow changes in intracellular calcium, usually with a dye or a luminescent sensor.

The target of experiment [2] is T2, NPFF2 receptor (human NPFFR2 in CHO-RD-HGA16 cells) (Homo sapiens, UniProt Q9Y5X5).
T2 construct: expressed in transfected cells
The experiment in a line: Calcium mobilization functional Ke assay, NPFF2. Type of experiment: cell-based. The settings on record: for Kb: read-out: NPFF2 Ke.

Setting [3] is: Table 2, 4-(4-methylthio)benzylamino series, mean ± SEM.
Setting [4] is: Table 1, mean ± SEM, apparent dissociation constant vs NPFF.
[5] abbreviates: Table 1, footnote c: pre-incubation of antagonist and test compound 45 min or 1 hr.

Read-outs that look alike come from different tables or passages of the source.

T1 sequence (Q9GZQ6 whole entry): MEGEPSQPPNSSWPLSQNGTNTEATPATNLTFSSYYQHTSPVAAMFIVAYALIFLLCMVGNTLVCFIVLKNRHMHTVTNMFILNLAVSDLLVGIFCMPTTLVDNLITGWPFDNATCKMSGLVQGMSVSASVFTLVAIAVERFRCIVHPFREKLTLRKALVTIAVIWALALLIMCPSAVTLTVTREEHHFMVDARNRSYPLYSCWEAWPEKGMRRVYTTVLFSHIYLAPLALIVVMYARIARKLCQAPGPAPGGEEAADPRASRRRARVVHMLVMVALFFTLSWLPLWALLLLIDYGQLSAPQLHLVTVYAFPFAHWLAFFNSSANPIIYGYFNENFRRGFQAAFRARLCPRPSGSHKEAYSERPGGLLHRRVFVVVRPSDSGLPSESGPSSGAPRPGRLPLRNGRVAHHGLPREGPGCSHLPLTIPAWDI
T2 sequence (Q9Y5X5 whole entry): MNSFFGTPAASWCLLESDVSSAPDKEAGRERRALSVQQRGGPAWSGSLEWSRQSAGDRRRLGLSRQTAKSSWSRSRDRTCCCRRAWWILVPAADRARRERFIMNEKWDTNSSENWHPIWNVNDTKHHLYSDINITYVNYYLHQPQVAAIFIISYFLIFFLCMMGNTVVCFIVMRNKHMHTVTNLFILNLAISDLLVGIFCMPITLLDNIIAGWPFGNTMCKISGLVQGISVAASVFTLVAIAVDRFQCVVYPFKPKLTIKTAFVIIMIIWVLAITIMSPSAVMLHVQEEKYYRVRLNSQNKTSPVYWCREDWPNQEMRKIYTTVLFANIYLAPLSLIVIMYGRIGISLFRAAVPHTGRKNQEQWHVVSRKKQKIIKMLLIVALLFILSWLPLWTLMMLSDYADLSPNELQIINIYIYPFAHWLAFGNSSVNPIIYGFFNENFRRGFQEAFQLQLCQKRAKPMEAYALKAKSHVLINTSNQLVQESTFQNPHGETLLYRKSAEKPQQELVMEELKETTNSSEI

Turning to `COc1ccc(CN[C@H]2C[C@@H](C(=O)NCCc3ccccc3)N(Cc3ccc(N(C)C)cc3)C2)cc1` [Compound 85, (2S,4S)-1-{[4-(Dimethylamino)phenyl]methyl}-4-{[(4-methoxyphenyl)methyl]amino}-N-(2-phenylethyl)pyrrolidine-2-carboxamide], the Kb was 3.51 µM in experiment [1] (Table 4, mean ± SEM) and over 10 µM in experiment [2] (Table 4, mean ± SEM).
As to `COc1ccc(CN[C@H]2C[C@@H](C(=O)NCCc3ccccc3)N(Cc3ccc4c(c3)OCO4)C2)cc1` [Compound 88, (2S,4S)-1-(2H-1,3-Benzodioxol-5-ylmethyl)-4-{[(4-methoxyphenyl)methyl]amino}-N-(2-phenylethyl)pyrrolidine-2-carboxamide], the Kb in experiment [1] (Table 4, mean ± SEM) is 1.86 µM; in experiment [2] (Table 4, mean ± SEM), over 10 µM.
For `CCCCCNC(=O)[C@@H]1C[C@H](NCc2ccc(SC)cc2)CN1Cc1ccccc1Cl` [Compound 44, (2S,4S)-1-[(2-Chlorophenyl)methyl]-4-{[(4-(methylthio)phenyl)methyl]amino}-N-pentylpyrrolidine-2-carboxamide], the Kb in experiment [1] (setting [3]) was found to be 0.36 ± 0.05 µM; in experiment [1] (calcium mobilization assay) it was 0.36 µM; in experiment [2] (Table 2, footnote c: pre-incubation 1 hr), 0.97 ± 0.03 µM.
`CCNC(=O)[C@@H]1C[C@H](NCc2ccc(OC)cc2)CN1Cc1ccccc1Cl` [Compound 11, (2S,4S)-1-[(2-Chlorophenyl)methyl]-N-ethyl-4-{[(4-methoxyphenyl)methyl]amino}pyrrolidine-2-carboxamide]: the Kb in experiment [1] (setting [4]), in experiment [1] (calcium mobilization assay) and in experiment [2] (setting [4]) was over 10 µM in each case. For the same molecule, the “NPFF1 antagonist activity” value in experiment [1] (at 10 μM) was “inactive”. Also, the “NPFF2 antagonist activity” value in experiment [2] (at 10 μM) is “inactive”.
As to `CSc1ccc(CN[C@H]2C[C@@H](C(=O)NCCc3ccccc3)N(Cc3ccccc3Cl)C2)cc1` [Compound 45, (2S,4S)-1-[(2-Chlorophenyl)methyl]-4-{[(4-(methylthio)phenyl)methyl]amino}-N-(2-phenylethyl)pyrrolidine-2-carboxamide], the Kb in experiment [1] (setting [3]) was 0.53 ± 0.08 µM; in experiment [1] (calcium mobilization assay), 0.53 µM; in experiment [2] (setting [3]) it was 3.7 µM.
For `CCN(CC)C(=O)[C@@H]1C[C@H](NCc2ccc(OC)cc2)CN1Cc1ccccc1Cl` [Compound 40, (2S,4S)-1-[(2-Chlorophenyl)methyl]-N,N-diethyl-4-{[(4-methoxyphenyl)methyl]amino}pyrrolidine-2-carboxamide], the Kb worked out at 2.9 µM in experiment [1] (setting [4]) and 4.93 µM in experiment [2] (setting [4]).
As to `CCCN(CCC)C(=O)[C@@H]1C[C@H](NCc2ccc(OC)cc2)CN1Cc1ccccc1Cl` [Compound 41, (2S,4S)-1-[(2-Chlorophenyl)methyl]-4-{[(4-methoxyphenyl)methyl]amino}-N,N-dipropylpyrrolidine-2-carboxamide], the Kb worked out at 0.88 ± 0.12 µM in experiment [1] (setting [5]), 0.88 µM in experiment [1] (calcium mobilization assay) and 1.73 µM in experiment [2] (setting [5]). The “type of antagonism in curve-shift assays” value in experiment [1] is recorded as “insurmountable antagonism”.
In the case of `COc1ccc(CN[C@H]2C[C@@H](C(=O)NCc3ccccc3)N(Cc3ccccc3Cl)C2)cc1` [Compound 23, (2S,4S)—N-Benzyl-1-[(2-chlorophenyl)methyl]-4-{[(4-methoxyphenyl)methyl]amino}pyrrolidine-2-carboxamide], the Kb in experiment [1] (setting [5]) was 0.78 ± 0.08 µM; in experiment [2] (setting [5]), 2.01 µM. Further, in experiment [1], the “type of antagonism in curve-shift assays” value is on record as “insurmountable antagonism”.
Consider `COc1ccc(CN[C@H]2C[C@@H](C(=O)NCCc3ccccc3)N(Cc3ccccc3C)C2)cc1` [Compound 82, (2S,4S)-4-{[(4-Methoxyphenyl)methyl]amino}-1-[(2-methylphenyl)methyl]-N-(2-phenylethyl)pyrrolidine-2-carboxamide], for which the Kb in experiment [1] (Table 4, mean ± SEM) turned out to be 0.49 ± 0.07 µM; in experiment [2] (Table 4, mean ± SEM), 3.94 µM.
Consider `O=C(NCCc1ccc([N+](=O)[O-])cc1)[C@@H]1C[C@H](NCc2ccc(C(F)(F)F)cc2)CN1Cc1ccccc1Cl` [Compound 62, (2S,4S)-1-[(2-Chlorophenyl)methyl]-N-[2-(4-nitrophenyl)ethyl]-4-({[4-(trifluoromethyl)phenyl]methyl}amino)pyrrolidine-2-carboxamide], for which the Kb in experiment [1] (Table 3, mean ± SEM) worked out at 2.06 µM; in experiment [2] (Table 3, mean ± SEM), 6.38 µM.
